The values below come from patent US4593090A, “Novel nitrosourea compounds, method for preparing same, and pharmaceutical composition containing same” (Gogo Kimura, priority 1981, dated 1986).

For data set [1], the system named is Leukemia L1210. Put plainly: Activity against Leukemia L1210, intraperitoneal, increase in life span of mice. The note with it: for ED (maximum ILS) / ED30: Mus musculus, L1210, ip; for ED (maximum ILS): read-out: O.D. (optimum dosage); for ED30: read-out: ILS30; for Survivors after 60 days / Max. ILS % / Therapeutic ratio TR: ip; for Survivors after 60 days: 6-membered group; for Max. ILS %: 60-day observation, versus control; for Therapeutic ratio TR: O.D./ILS30. In kind it is in vivo, female mice (BDF1 family). Here is the method: Tests were conducted in accordance with the method for measuring antitumor activity of National Cancer Center Tokyo (A, Hoshi et al, Farumashia 9 464 (1973)). Test compounds were each intraperitoneally (referred to as ip) or orally (referred to as op) administered once a day for 5 successive days to a 6-membered group of femal mice (BDF1 family, each weighing 20 to 23 g) 24 hours after 1×10^5 cells of Leukemia L1210 have been implantated into the abdominal cavities of the mice, and the effect was evaluated by comparing the survival days of treated groups with those of an untreated group of mice (control group) in 60-day observation. An increase percentage of life span (ILS%) was calculated from said average survival days compared with those of the control group. Further, therapeutic ratio (O.D./ILD30, referred to as T.R.) of each tested compound was calculated from the daily dosage of the compound necessary to increase said average survival days by 30% as compared with the control group (this dosage is referred to as ILS 30) and the daily dosage giving a maximum increase of life span to mice implantated with L1210 cells, namely an optimum dosage (referred to as O.D.). The results of five successive days intraperitoneal administrations of test compounds were shown in Tables I to III, and those of five successive oral administrations in Table IV.

Data set [2] can be described thus: Acute toxicity (LD50, Behrens-Karber method). The note with it: ip, mortality during 30 days; for LD50 at 720 h: mouse, in vivo. In kind it is in vivo, ICR mice. The method, then: Test compounds, dissolved or suspended in 0.5% aqueous CMC, were each intraperitoneally administered to ICR mice in a dose of 0.1 ml per 10 g body weight. LD50 (mg/kg) value of each test compound was calculated from the mortality of mice during 30 days by the Behrens-Karber method.

[3] abbreviates: ip once a day for 5 successive days, daily dosage giving maximum increase of life span.
[4] abbreviates: ip once a day for 5 successive days, daily dosage increasing average survival days by 30%.

`CC(C)CCO[C@H]1O[C@H](CN(CC(C)C)C(=O)N(CCCl)N=O)[C@@H](O)[C@H](O)[C@H]1O` [Compound 25, 3-isobutyl-3-(isopentyl α-D-glucopyranose-6-yl)-1-(2-chloroethyl)-1-nitrosourea]: in data set [1] (setting [3]), the ED (maximum ILS) was found to be 150 mg/kg. Besides, in data set [1] (setting [4]), the ED30 came to 4.2 mg/kg. Further, in data set [1], the “Survivors after 60 days” value is listed as 6/6, the “Max. ILS %” value is above 700% and the “Therapeutic ratio TR” value is on record as 35.7. The LD50 (as a rule, the dose at which mortality reaches 50%) at 720 h in data set [2] was 450 mg/kg.

Take `CC(C)CCN(C(=O)N(CCCl)N=O)[C@H]1[C@@H](O)[C@@H](CO)O[C@H](OCC(C)C)[C@@H]1O` [Compound 127, 3-isoamyl-3-(isobutyl α-D-galactopyranose-3-yl)-1-(2-chloroethyl)-1-nitrosourea]: the ED (maximum ILS) in data set [1] (setting [3]) stood at 200 mg/kg. In data set [1] (setting [4]), the ED30 was found to be 6.56 mg/kg. In data set [1], the “Survivors after 60 days” value was 3/6, the “Max. ILS %” value was above 340% and the “Therapeutic ratio TR” value is 30.5. In data set [2], this molecule yielded an LD50 at 720 h of 600 mg/kg.

Regarding `CCCCN(C(=O)N(CCCl)N=O)C1C(O)C(CO)OC(OCCCOC)C1O` [Compound 76, 3-n-butyl-3-(3-methoxy-n-propyl α-D-glucopyranose-3-yl)-1-(2-chloroethyl)-1-nitrosourea], the ED (maximum ILS) in data set [1] (setting [3]) turned out to be 200 mg/kg. Further, the ED30 in data set [1] (setting [4]) is 5.21 mg/kg. In addition, in data set [1], the “Survivors after 60 days” value is on record as 3/6, the “Max. ILS %” value is recorded as above 360% and the “Therapeutic ratio TR” value amounted to 38.4. In addition, the LD50 at 720 h in data set [2] stood at 650 mg/kg.

On to `COCCCO[C@@H]1O[C@H](CN(CCCOC)C(=O)N(CCCl)N=O)[C@@H](O)[C@H]1O` [Compound 168, 3-(3-methoxy-n-propyl)-3-(3-methoxy-n-propyl β-D-ribofuranose-5-yl)-1-(2-chloroethyl)-1-nitrosourea], for which the ED (maximum ILS) in data set [1] (setting [3]) was 160 mg/kg. Moreover, in data set [1] (setting [4]), the ED30 came to 3.3 mg/kg. In data set [1], the “Survivors after 60 days” value is listed as 4/6, the “Max. ILS %” value is above 425% and the “Therapeutic ratio TR” value is on record as 48.5. In data set [2], the median lethal dose (LD50) at 720 h is 500 mg/kg.

Take `CC(C)CO[C@@H]1O[C@H](CO)[C@@H](O)[C@H](O)[C@H]1N(C(=O)N(CCCl)N=O)C(C)(C)C` [Compound 176, 3-tert-butyl-3-(isobutyl β-D-glucopyranose-2-yl)-1-(2-chloroethyl)-1-nitrosourea]: in data set [1] (setting [3]), the ED (maximum ILS) was 180 mg/kg. In data set [1] (setting [4]), the ED30 was determined as 5.9 mg/kg. In data set [1], the “Survivors after 60 days” value was 6/6, the “Max. ILS %” value is listed as above 700% and the “Therapeutic ratio TR” value stood at 30.5. In data set [2], this molecule registered an LD50 at 720 h of 620 mg/kg.

For `CC(C)CO[C@H]1O[C@H](CO)[C@@H](O)[C@H](O)[C@H]1N(Cc1ccccc1)C(=O)N(CCCl)N=O` [Compound 62, 3-benzyl-3-(isobutyl α-D-glucopyranose-2-yl)-1-(2-chloroethyl)-1-nitrosourea], the ED (maximum ILS) in data set [1] (setting [3]) amounted to 200 mg/kg. In addition, the ED30 in data set [1] (setting [4]) worked out at 7.8 mg/kg. In data set [1], the “Survivors after 60 days” value is on record as 3/6, the “Max. ILS %” value was above 340% and the “Therapeutic ratio TR” value stood at 25.6. Moreover, in data set [2], the LD50 at 720 h was found to be 565 mg/kg.

In the case of `CC(C)(C)CN(C[C@H]1O[C@H](OCC2CCCO2)[C@H](O)[C@@H](O)[C@@H]1O)C(=O)N(CCCl)N=O` (stereo partly drawn) [Compound 194, 3-neopentyl-3-(tetrahydrofurfuryl α-D-glucopyranose-6-yl)-1-(2-chloroethyl)-1-nitrosourea], in data set [1] (setting [3]), the “O.D. (optimum dosage)” value was found to be 160 mg/kg. This molecule also showed an ILS30 in data set [1] (setting [4]) of 2.56 mg/kg. In data set [1], the “Survivors after 60 days” value is given as 6/6, the “Max. ILS %” value was above 700% and the “Therapeutic ratio TR” value was determined as 62.6. In data set [2] (43200 min), this molecule showed an LD50 of 560 mg/kg.

For the molecule `CO[C@H]1O[C@H](CO)[C@@H](O)[C@H](O)[C@H]1NC(=O)N(CCCl)N=O` [Compound 2MCαG, 3-(methyl α-D-glucopyranose-2-yl)-1-(2-chloroethyl)-1-nitrosourea, reference compound], the ED (maximum ILS) in data set [1] (setting [3]) amounted to 15.2 mg/kg. The ED30 in data set [1] (setting [4]) came to 1.15 mg/kg. Also, in data set [1], the “Survivors after 60 days” value is given as 5/6, the “Max. ILS %” value is recorded as above 625% and the “Therapeutic ratio TR” value is given as 13.2. Also, the LD50 at 720 h in data set [2] was determined as 46 mg/kg.

As for `CCC(C)O[C@@H]1OC[C@H](O)[C@H](O)[C@H]1N(CCCOC)C(=O)N(CCCl)N=O` (stereo partly drawn) [Compound 158, 3-(3-methoxy-n-propyl)-3-(sec-butyl α-L-arabinopyranose-2-yl)-1-(2-chloroethyl)-1-nitrosourea], the ED (maximum ILS) in data set [1] (setting [3]) turned out to be 170 mg/kg. The ED30 in data set [1] (setting [4]) amounted to 3.21 mg/kg. In data set [1], the “Survivors after 60 days” value is 6/6, the “Max. ILS %” value was above 700% and the “Therapeutic ratio TR” value is 53.0. In addition, the LD50 at 720 h in data set [2] amounted to 530 mg/kg.

In the case of `C=CCN(C[C@H]1O[C@H](OC2CCCCC2)[C@H](O)[C@@H](O)[C@@H]1O)C(=O)N(CCCl)N=O` [Compound 38, 3-(2-propenyl) -3-(cyclohexyl α-D-glucopyranose-6-yl)-1-(2-chloroethyl)-1-nitrosourea], in data set [1] (setting [3]), the ED (maximum ILS) is 150 mg/kg. For the same molecule, the ED30 in data set [1] (setting [4]) came to 3.28 mg/kg. In data set [1], the “Survivors after 60 days” value was 6/6, the “Max. ILS %” value was above 700% and the “Therapeutic ratio TR” value came out at 45.7. Besides, the LD50 at 720 h in data set [2] was 430 mg/kg.

Take `O=NN(CCCl)C(=O)N(CCCCO)C[C@H]1O[C@H](OC2CCCCC2)[C@H](O)[C@@H](O)[C@@H]1O` [Compound 43]: the ED (maximum ILS) in data set [1] (setting [3]) came to 160 mg/kg. In addition, in data set [1] (setting [4]), the ED30 is 4.68 mg/kg. Moreover, in data set [1], the “Survivors after 60 days” value is 4/6, the “Max. ILS %” value was above 435% and the “Therapeutic ratio TR” value worked out at 34.2. This molecule also displayed an LD50 at 720 h in data set [2] of 520 mg/kg.

On to `CC(C)CO[C@@H]1O[C@H](CN(CC(C)(C)C)C(=O)N(CCCl)N=O)[C@@H](O)[C@H](O)[C@H]1O` [Compound 184, 3-neopentyl-3-(isobutyl β-D-glucopyranose-6-yl)-1-(2-chloroethyl)-1-nitrosourea], for which the ED (maximum ILS) in data set [1] (setting [3]) turned out to be 170 mg/kg. Besides, in data set [1] (setting [4]), the ED30 amounted to 2.93 mg/kg. Besides, in data set [1], the “Survivors after 60 days” value is on record as 6/6, the “Max. ILS %” value was above 700% and the “Therapeutic ratio TR” value was determined as 58.0. This molecule returned an LD50 at 720 h in data set [2] of 540 mg/kg.

For `CC(C)CO[C@H]1O[C@H](CN(Cc2ccco2)C(=O)N(CCCl)N=O)[C@@H](O)[C@H](O)[C@H]1O` [Compound 24, 3-furfuryl-3-(isobutyl α-D-glucopyranose-6-yl)-1-(2-chloroethyl)-1-nitrosourea], the ED (maximum ILS) in data set [1] (setting [3]) was 180 mg/kg. Further, the ED30 in data set [1] (setting [4]) amounted to 3.1 mg/kg. In addition, in data set [1], the “Survivors after 60 days” value was 5/6, the “Max. ILS %” value is on record as above 620% and the “Therapeutic ratio TR” value is on record as 58.1. Also, the LD50 at 720 h in data set [2] is 555 mg/kg.

In the case of `COc1ccc(CN(C(=O)N(CCCl)N=O)[C@H]2[C@@H](OCC(C)C)O[C@H](CO)[C@H](O)[C@@H]2O)cc1` [Compound 120, 3-(p-methoxybenzyl)-3-(isobutyl α-D-galactopyranose-2-yl)-1-(2-chloroethyl)-1-nitrosourea], in data set [1] (setting [3]), the ED (maximum ILS) worked out at 170 mg/kg. In data set [1] (setting [4]), the ED30 stood at 6.59 mg/kg. Further, in data set [1], the “Survivors after 60 days” value is on record as 3/6, the “Max. ILS %” value is above 340% and the “Therapeutic ratio TR” value came out at 25.8. For the same molecule, in data set [2], the LD50 at 720 h came to 550 mg/kg.
